Calls of active or inactive are those of the source.
Columns and labels:
[1] = inhibitors of firefly luciferase expression or activity, dose response, H4 neuroglioma cells, luminescence (AID 1990); format: functional, cell-based
[2] = Luminescence Cell-Based Dose Response HTS to Identify Inhibitors of 5'UTR Stem-Loop Driven Prion Protein mRNA Translation in H4 Neuroglioblastoma Cells. [Related pubchem assays: 1827 (Project Summary), 1813 (Primary HTS)]; format: functional
[3] = inhibitors of SNCA 5'UTR-driven reporter translation, confirmation, H4 neuroglioma cells, luminescence (AID 1988); format: functional, cell-based
Exodeoxyribonuclease V = Exodeoxyribonuclease V (Escherichia coli (strain K12), UniProt P04993+P07648+P08394); assay: E. coli RecBCD inhibitors, dose response, counter-screen for AddAB inhibitor project, absorbance, V66 E. coli, mutant T4 phage (AID 492957); format: functional, cell-based, Escherichia coli str. K-12 substr. MG1655
[4] = Counterscreen for AddAB inhibitors: absorbance-based bacterial cell-based high throughput dose response assay for inhibitors of bacterial viability. [Related pubchem assays (depositor defined):AID435030, AID449728, AID449731, AID488942, AID488955, AID488956]; format: functional
[5] = biological target: Lysine-specific demethylase 4C (Homo sapiens, UniProt Q9H3R0); assay: GASC-1 (JMJD2C) histone demethylase inhibitors, dose response, biochemical, DELFIA europium, cherry-picked samples (AID 488835); format: functional
Lysine-specific demethylase 4C, sequence (Q9H3R0 whole entry): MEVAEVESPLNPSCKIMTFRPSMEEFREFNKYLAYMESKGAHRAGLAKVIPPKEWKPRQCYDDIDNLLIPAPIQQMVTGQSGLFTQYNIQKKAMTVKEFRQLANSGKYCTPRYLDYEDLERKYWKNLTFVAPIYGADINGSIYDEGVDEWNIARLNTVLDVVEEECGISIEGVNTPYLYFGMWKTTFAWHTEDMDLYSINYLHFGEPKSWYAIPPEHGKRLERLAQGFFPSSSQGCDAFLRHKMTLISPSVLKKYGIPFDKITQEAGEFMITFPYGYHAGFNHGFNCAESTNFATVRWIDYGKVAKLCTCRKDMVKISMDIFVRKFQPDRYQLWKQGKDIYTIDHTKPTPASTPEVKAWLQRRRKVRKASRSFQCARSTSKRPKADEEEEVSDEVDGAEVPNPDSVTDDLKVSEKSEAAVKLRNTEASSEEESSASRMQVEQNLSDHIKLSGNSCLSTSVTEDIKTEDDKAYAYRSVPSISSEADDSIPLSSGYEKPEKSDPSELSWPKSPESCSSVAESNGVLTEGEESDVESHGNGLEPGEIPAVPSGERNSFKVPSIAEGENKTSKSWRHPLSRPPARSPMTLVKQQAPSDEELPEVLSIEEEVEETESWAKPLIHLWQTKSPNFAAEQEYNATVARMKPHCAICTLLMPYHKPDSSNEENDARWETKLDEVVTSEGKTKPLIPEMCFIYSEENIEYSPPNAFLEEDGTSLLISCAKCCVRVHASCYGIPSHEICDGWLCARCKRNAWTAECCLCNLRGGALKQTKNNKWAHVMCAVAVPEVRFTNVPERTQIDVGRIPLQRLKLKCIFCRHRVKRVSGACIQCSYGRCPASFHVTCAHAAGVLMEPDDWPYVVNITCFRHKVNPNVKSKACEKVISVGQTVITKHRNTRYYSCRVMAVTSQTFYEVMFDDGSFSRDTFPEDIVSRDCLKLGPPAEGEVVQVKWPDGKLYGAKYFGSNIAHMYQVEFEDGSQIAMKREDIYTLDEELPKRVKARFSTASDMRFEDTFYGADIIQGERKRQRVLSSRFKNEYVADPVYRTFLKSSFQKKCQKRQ

Estrogen receptor beta = Estrogen receptor beta (Homo sapiens, UniProt Q92731); assay: ERβ–SRC-3 coactivator interaction inhibitors, confirmation, orthogonal assay, biochemical, ELISA, streptavidin-HRP readout (AID 1060)
Estrogen receptor beta, sequence (Q92731 whole entry): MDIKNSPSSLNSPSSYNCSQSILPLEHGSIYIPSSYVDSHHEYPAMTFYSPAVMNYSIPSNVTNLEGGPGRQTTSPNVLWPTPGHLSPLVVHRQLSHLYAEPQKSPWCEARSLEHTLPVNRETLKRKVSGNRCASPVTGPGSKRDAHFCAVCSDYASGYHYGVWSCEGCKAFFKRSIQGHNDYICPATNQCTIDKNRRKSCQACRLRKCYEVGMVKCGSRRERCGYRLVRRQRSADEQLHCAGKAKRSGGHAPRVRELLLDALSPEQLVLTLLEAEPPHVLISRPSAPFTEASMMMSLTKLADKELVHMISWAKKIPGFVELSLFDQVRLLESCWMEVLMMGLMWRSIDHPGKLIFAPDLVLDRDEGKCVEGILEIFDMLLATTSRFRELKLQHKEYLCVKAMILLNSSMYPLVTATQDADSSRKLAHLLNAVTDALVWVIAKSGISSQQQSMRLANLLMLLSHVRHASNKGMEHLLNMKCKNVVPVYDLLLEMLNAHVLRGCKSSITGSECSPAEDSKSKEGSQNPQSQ

[6] = biological target: T1, Mannose-6-phosphate isomerase (Homo sapiens, UniProt P34949); assay: human PMI inhibitors, high substrate, primary screen, biochemical, fluorescence intensity, high mannose 6-phosphate (AID 1220)
T1 sequence (P34949 whole entry): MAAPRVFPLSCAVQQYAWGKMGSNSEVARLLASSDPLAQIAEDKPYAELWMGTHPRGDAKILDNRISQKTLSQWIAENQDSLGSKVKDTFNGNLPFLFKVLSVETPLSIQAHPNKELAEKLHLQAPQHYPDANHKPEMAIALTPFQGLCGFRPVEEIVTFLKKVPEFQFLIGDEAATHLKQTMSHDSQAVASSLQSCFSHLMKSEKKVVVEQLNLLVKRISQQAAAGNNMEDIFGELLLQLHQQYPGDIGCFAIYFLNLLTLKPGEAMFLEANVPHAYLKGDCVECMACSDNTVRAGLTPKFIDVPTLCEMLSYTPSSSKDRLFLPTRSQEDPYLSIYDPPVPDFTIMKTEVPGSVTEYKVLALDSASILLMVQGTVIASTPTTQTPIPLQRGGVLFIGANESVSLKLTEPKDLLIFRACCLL

[7] = biological target: Intestinal-type alkaline phosphatase (Homo sapiens, UniProt P09923); assay: activation of human intestinal alkaline phosphatase – biochemical, dose response (AID 488873); format: functional
Intestinal-type alkaline phosphatase (Homo sapiens, UniProt P09923), sequence (P09923 whole entry): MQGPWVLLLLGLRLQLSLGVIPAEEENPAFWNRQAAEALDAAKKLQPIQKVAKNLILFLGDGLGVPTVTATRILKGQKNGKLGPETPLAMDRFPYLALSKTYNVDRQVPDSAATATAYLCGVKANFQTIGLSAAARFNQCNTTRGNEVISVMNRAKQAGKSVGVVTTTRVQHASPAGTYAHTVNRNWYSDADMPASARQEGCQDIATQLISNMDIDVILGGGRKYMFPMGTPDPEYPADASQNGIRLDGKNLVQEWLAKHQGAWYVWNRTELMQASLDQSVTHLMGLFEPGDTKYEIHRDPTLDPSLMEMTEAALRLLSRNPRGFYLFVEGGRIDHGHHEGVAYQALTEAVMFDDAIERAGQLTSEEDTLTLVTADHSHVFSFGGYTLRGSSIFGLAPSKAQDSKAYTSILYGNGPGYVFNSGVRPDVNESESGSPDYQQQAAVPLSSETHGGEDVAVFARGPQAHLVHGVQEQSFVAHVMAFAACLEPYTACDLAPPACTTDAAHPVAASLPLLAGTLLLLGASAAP

[8] = biological target: Intestinal-type alkaline phosphatase (Mus musculus, UniProt P24822); assay: mouse intestinal alkaline phosphatase activators, dose response, biochemical, luminescence, uHTS hits (AID 488783); format: functional
Intestinal-type alkaline phosphatase (Mus musculus, UniProt P24822), sequence (P24822 whole entry): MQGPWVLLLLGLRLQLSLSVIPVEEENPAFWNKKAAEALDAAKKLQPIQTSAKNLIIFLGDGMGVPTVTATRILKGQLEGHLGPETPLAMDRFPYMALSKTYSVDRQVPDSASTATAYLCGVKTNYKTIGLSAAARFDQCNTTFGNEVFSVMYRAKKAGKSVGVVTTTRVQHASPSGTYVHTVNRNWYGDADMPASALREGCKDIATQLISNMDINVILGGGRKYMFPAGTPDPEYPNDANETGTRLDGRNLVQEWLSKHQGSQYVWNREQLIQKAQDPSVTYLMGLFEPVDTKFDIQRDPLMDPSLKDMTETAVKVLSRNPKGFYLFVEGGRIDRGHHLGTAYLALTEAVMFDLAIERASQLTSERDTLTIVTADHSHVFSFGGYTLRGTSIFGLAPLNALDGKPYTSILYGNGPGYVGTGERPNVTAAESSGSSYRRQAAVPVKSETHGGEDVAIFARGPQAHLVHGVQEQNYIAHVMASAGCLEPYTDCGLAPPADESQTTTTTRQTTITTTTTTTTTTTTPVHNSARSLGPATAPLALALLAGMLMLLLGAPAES

[9] = biological target: T2, Alkaline phosphatase, tissue-nonspecific isozyme (Homo sapiens, UniProt P05186); assay: TNAP enzyme activators, dose response, selectivity assay for mouse IAP activator project, biochemical, TNAP isozyme, mouse IAP uHTS hits (AID 488880); format: functional
T2 sequence (P05186 whole entry): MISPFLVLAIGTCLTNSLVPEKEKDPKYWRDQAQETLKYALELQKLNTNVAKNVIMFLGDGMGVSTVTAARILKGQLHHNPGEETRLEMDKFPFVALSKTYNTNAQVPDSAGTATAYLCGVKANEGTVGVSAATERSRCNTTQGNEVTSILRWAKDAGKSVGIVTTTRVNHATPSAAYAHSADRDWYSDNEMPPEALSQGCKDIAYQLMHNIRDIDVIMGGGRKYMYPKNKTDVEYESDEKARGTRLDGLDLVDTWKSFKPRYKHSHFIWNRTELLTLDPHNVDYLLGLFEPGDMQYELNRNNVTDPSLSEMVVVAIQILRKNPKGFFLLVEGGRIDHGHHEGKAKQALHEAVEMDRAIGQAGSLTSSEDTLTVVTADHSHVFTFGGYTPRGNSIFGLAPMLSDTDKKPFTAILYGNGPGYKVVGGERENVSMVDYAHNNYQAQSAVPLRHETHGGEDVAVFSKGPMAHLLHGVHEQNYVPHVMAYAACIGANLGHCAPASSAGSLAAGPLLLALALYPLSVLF

[10] = biological target: T3, Kappa-type opioid receptor (Homo sapiens, UniProt P41145); assay: KOR agonist analogs, arrestin-GFP redistribution, SAR follow-up, imaging, image-based, set 3 (AID 488833); format: functional
T3 sequence (P41145 whole entry): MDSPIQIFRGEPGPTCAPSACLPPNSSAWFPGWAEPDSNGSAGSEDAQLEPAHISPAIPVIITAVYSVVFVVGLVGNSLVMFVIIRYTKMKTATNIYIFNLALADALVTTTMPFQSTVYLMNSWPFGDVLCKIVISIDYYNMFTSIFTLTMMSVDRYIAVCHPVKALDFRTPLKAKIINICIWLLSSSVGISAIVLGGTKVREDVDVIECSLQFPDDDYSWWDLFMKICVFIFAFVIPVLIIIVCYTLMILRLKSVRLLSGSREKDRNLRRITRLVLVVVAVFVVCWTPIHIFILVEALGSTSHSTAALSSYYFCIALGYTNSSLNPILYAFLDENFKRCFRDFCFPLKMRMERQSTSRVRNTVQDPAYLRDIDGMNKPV

Mu-type opioid receptor = Mu-type opioid receptor (Homo sapiens, UniProt P35372); assay: SAR Analysis of Agonists of the MOR Receptor using an Image-Based Assay - Set 3. [Related pubchem assays (depositor defined):AID1777, AID1785, AID1786, AID1966, AID2133, AID2136, AID2284, AID2285, AID2352]; format: functional
Mu-type opioid receptor, sequence (P35372 whole entry): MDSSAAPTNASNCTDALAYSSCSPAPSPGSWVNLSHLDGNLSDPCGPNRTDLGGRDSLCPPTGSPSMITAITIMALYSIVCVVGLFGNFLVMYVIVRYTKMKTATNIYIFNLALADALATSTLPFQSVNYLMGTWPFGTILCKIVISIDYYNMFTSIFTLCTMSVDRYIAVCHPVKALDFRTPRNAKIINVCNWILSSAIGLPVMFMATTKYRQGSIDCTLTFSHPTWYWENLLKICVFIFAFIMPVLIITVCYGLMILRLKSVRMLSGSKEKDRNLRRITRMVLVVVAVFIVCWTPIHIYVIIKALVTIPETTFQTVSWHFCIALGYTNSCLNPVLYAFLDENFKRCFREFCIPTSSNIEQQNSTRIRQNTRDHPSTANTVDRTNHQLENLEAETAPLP

[11] = biological target: Delta-type opioid receptor (Homo sapiens, UniProt P41143); assay: SAR Analysis of Agonists of the DOR Receptor using an Image-Based Assay - Set 3. [Related pubchem assays (depositor defined):AID1777, AID1786]; format: functional
Delta-type opioid receptor, sequence (P41143 whole entry): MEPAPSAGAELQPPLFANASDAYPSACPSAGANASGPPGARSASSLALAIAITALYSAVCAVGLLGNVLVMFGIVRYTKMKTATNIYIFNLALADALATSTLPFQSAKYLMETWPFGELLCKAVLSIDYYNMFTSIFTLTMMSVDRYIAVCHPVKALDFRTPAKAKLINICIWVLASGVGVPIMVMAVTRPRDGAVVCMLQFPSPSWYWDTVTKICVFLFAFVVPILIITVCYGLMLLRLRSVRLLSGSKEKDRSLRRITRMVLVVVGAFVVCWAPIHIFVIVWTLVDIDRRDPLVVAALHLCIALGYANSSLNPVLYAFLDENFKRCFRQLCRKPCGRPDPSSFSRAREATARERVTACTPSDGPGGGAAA

[12] = biological target: T3, Kappa-type opioid receptor; assay: SAR analysis of small molecule agonists of the kappa opioid receptor via a luminescent beta-arrestin assay - Set 3. [Related pubchem assays (depositor defined):AID1777, AID1785, AID1786, AID1966, AID2133, AID2136, AID2284, AID2500]; format: functional
[13] = mammalian cell cytotoxicity, dose response, cytotoxicity control, plate reader, cherry-pick samples (AID 504397); format: functional, cell-based
[14] = biological target: T4, RNA-binding protein pos-1 (Caenorhabditis elegans, UniProt G5EF15); assay: inhibitors of POS-1/mex-3 RNA binding, dose response, biochemical, fluorescence polarization (AID 1964);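 also: purified POS-1 fused to maltose binding protein made in E. coli; potency of compounds blocking POS-1 binding to fluorescent RNA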
T4 sequence (G5EF15 whole entry): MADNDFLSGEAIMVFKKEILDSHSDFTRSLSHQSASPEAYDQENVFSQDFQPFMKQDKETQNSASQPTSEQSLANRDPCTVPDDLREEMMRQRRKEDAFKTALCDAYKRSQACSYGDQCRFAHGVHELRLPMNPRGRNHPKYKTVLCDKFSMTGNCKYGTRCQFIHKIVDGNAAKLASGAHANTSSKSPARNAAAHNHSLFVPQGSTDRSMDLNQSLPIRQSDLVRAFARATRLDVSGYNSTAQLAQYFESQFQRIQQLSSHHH

[15] = biological target: T5, Runt-related transcription factor 1/Core-binding factor subunit beta (Homo sapiens, UniProt Q01196+Q13951); assay: inhibitors of RUNX1 Runt–CBFb-SMMHC binding, primary screen, biochemical, FRET, Cerulean-Runt, Venus-CBFb-SMMHC, uHTS (AID 1434); format: protein assay;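 also: partner is the CBFb-SMMHC leukemia fusion protein rather than wild-type CBFb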
T5 sequence (Q01196 whole entry, the tested form may be a part): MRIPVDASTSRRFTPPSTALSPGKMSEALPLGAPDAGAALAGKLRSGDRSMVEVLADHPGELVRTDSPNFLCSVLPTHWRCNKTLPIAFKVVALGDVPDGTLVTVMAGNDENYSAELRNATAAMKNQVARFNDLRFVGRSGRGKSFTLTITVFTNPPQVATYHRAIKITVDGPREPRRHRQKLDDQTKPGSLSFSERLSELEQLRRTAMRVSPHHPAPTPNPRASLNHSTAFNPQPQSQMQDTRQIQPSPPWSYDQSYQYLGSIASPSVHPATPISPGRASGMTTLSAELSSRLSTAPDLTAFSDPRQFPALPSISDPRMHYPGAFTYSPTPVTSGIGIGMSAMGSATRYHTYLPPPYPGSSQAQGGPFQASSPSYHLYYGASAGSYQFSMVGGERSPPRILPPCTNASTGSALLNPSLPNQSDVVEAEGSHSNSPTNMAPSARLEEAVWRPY
T5 sequence (Q13951 whole entry, the tested form may be a part): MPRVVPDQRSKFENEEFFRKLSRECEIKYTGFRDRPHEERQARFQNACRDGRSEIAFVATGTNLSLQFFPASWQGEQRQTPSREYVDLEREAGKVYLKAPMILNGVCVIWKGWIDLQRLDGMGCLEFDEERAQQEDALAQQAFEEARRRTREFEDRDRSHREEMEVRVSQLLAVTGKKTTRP

[16] = biological target: T6, Zinc finger protein mex-5 (Caenorhabditis elegans, UniProt Q9XUB2); assay: MEX-5/TCR-2 RNA interaction inhibitors, dose response, biochemical, C. elegans, fluorescence polarization (AID 1960)
T6 sequence (Q9XUB2 whole entry): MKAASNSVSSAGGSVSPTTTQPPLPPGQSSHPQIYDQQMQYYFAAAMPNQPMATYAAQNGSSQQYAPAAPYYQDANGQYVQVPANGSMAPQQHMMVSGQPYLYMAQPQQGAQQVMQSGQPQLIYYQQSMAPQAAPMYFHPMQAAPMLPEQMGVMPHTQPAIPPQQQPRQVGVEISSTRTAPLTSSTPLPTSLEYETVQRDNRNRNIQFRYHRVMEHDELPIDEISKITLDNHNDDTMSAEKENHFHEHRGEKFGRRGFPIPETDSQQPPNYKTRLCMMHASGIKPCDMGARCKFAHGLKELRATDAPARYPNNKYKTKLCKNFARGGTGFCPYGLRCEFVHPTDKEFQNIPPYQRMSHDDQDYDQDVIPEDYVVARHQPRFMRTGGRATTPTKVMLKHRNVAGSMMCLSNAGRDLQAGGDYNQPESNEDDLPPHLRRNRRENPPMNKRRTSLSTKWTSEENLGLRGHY

[17] = biological target: T5, Runt-related transcription factor 1/Core-binding factor subunit beta; assay: inhibitors of RUNX1 Runt–CBFb-SMMHC binding, biochemical, TR-FRET (AID 1438); format: protein assay
[18] = biological target: Induced myeloid leukemia cell differentiation protein Mcl-1 (Homo sapiens, UniProt Q07820); format: functional
Induced myeloid leukemia cell differentiation protein Mcl-1, sequence (Q07820 whole entry): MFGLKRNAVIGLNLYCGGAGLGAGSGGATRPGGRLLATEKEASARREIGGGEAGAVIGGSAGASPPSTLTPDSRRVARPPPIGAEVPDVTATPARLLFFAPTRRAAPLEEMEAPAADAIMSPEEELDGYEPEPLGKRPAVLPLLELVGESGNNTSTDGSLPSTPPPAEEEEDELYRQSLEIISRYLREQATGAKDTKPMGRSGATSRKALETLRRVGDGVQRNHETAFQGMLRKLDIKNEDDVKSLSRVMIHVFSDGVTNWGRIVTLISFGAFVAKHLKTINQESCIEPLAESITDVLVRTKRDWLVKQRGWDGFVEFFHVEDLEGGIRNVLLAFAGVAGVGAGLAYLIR

In the case of CCCNC(=O)c1ccc2c(O)c(O)c(-c3ccsc3)nc2c1, the EC50 [1] is reported as 11.7 µM (active), the EC50 [2] is reported as 10.6 µM (active) and the EC50 [3] is reported as 8.96 µM (active). The IC50 (Exodeoxyribonuclease V) was > 118 µM (inactive) and the IC50 [4] was > 118 µM (inactive).

With COc1ccc(NC(=O)C2CCCCN2N)cc1OCC(C)C (stereo unspecified) the AC50 [5] was 27.6 µM (active).

With Oc1ccc2cc3c4cc(Br)ccc4nc-3oc2c1O the IC50 (Estrogen receptor beta) was 5.38 µM (not active), the IC50 [6] was 30 µM (active) and the EC50 [7] was 21.2 µM (active). For the same compound, the EC50 [8] was 22.1 µM (active) and the EC50 [9] was 24 µM (active).

In the case of CC(C)c1ccc(CSc2nnc(-c3ccccn3)n2Cc2ccco2)cc1, the EC50 [10] is reported as 2.84 µM (active), the EC50 (Mu-type opioid receptor) is reported as > 32 µM (inactive) and the EC50 [11] is reported as > 64 µM (inactive). For the same compound, the EC50 [12] was 5.97 µM (active).

For COc1ccccc1/C=C/C=N/NC(=O)CN1CCN(S(=O)(=O)c2ccc(C)cc2)CC1, the AC50 [13] was 132 µM (active).

In the case of COc1ccc(C(=O)/N=c2\c(C#N)cc3c(=O)n4cccc(C)c4nc3n2Cc2ccco2)cc1, the EC50 [14] is reported as 220 µM (active), the IC50 [15] is reported as 8.9 µM (active) and the EC50 [16] is reported as > 300 µM (not active). For the same compound, the IC50 [17] was 73.7 µM (inactive) and the IC50 [18] was 3.9 µM (active).
